Test results: US20150247179A1 (Les Laboratoires Servier, priority 2013, published 2015)

Legend:
CYP2B6 [1] = target: T1, CYP2B6 (Homo sapiens, UniProt P20813); assay: Percentage inhibition of bupropion hydroxylase activity in irreversibly inhibited human liver microsomes vs control batch
T1 sequence (P20813 1-491): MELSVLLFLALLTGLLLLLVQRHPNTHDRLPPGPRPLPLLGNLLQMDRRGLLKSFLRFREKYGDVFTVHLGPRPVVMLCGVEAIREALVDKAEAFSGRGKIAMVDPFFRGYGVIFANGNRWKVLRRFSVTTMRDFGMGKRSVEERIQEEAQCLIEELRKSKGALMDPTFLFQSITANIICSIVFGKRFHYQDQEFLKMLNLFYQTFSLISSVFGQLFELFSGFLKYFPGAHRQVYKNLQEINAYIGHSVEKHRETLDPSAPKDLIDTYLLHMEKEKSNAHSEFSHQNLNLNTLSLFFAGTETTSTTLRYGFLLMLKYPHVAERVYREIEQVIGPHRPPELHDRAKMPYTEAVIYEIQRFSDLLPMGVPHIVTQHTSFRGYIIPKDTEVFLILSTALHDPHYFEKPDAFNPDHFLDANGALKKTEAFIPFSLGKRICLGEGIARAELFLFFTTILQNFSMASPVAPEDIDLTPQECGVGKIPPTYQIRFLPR

CYP2A6 [2] = target: T2, CYP2A6 (Homo sapiens, UniProt P11509); assay: Percentage inhibition of coumarin hydroxylase activity in irreversibly inhibited human liver microsomes vs control batch; settings: probe coumarin
T2 sequence (P11509 1-494): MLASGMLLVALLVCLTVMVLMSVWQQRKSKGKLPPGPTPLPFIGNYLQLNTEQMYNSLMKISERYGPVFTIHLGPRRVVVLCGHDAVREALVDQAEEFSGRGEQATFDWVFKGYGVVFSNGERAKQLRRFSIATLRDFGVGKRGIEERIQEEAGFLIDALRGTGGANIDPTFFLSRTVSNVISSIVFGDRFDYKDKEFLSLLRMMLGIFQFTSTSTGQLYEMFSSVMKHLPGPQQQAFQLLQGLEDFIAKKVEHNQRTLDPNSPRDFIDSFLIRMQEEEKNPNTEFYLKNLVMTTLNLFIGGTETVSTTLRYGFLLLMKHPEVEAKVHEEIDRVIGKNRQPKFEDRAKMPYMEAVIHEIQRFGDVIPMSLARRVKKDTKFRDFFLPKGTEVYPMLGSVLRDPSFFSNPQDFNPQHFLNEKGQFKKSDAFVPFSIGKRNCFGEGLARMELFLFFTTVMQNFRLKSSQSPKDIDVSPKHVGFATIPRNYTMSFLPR

CYP2C8 [3] = target: T3, CYP2C8 (Homo sapiens, UniProt P10632)
T3 sequence (P10632 1-490): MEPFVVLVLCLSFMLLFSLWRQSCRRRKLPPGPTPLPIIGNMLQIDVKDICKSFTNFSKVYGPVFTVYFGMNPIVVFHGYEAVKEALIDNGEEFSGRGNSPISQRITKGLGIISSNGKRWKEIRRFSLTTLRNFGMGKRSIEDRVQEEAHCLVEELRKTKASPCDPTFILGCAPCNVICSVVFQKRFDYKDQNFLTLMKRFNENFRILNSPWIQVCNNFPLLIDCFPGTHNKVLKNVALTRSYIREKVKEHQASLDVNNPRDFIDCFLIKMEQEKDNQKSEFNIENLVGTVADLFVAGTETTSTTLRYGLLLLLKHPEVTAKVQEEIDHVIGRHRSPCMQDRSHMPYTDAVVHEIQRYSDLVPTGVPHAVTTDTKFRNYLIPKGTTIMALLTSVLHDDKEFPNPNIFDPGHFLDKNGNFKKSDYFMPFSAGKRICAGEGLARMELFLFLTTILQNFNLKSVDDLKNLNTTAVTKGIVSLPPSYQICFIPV

CYP2C8 [4] = target: T3, CYP2C8; settings: In vitro parameters (literature); cited from earlier work
CYP1A2 [5] = target: T4, CYP1A2 (Homo sapiens, UniProt P05177); assay: in vitro; settings: pH 7.4
T4 sequence (P05177 2-516): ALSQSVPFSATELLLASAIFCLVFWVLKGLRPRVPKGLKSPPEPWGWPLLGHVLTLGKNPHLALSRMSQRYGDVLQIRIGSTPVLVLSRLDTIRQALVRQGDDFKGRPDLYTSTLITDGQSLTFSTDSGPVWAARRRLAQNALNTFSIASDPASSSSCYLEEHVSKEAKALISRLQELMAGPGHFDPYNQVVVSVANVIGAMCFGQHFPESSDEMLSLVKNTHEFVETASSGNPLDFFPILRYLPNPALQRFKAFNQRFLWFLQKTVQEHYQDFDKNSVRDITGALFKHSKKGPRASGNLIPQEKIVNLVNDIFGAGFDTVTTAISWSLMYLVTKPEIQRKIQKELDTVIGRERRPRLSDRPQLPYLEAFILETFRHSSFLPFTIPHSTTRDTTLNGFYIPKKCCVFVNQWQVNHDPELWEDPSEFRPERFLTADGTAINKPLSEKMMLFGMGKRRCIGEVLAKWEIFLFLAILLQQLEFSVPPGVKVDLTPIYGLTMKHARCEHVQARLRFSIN

CYP2D6 [6] = target: T5, CYP2D6 (Homo sapiens, UniProt P10635); settings: In vitro parameters (literature); cited from earlier work
[7] = human
Protocol: (§1) Each active ingredient was incubated at 0.1 μM at 37° C. […] The reaction is initiated by addition of NADPH 1 mM. The incubation is monitored in kinetic form. At the incubation timepoints of 7 min, 17 min, 30 min and then 60 min, an incubation aliquot (100 μL) is sampled and the enzymatic reaction is stopped by adding to that aliquot a to volume of solvent (100 μL of methanol) which is placed in ice for 10 minutes.
(§2) At each incubation timepoint, the active ingredient is quantified by high-performance liquid chromatography (HPLC) coupled with mass spectrometry (MS).

CYP2C9 [8] = target: T6, CYP2C9 (Homo sapiens, UniProt P11712); settings: value for tolbutamide, used as comparator in Tables 4 and 5; cited from earlier work
CYP2C19 = CYP2C19 (Homo sapiens, UniProt P33261); settings: In vitro parameters (literature); cited from earlier work
CYP2E1 = CYP2E1 (Homo sapiens, UniProt P05181); settings: In vitro parameters (literature); cited from earlier work
CYP2C8 [9] = target: T3, CYP2C8; remark: listed apart in the source
Protocol: as §1, §2

CYP3A4 = CYP3A4 (Homo sapiens, UniProt P08684)
Protocol: as §1, §2

CYP1A2 [10] = system: CYP1A2
Protocol: as §1, §2

CYP2B6 [11] = target: T1, CYP2B6
Protocol: as §1, §2

CYP2D6 [12] = target: T5, CYP2D6
Protocol: as §1, §2

CYP2D6 [13] = target: T5, CYP2D6; assay: in vitro; settings: pH 7.4
CYP2A6 [14] = target: T2, CYP2A6; settings: In vitro parameters (literature); cited from earlier work
other major CYP450s = settings: microsomes irreversibly inhibited by tienilic acid 10 μM, 20 minutes
CYP2C9 [15] = target: T6, CYP2C9; assay: in vitro; settings: pH 7.4, inhibition of diclofenac hydroxylase (CYP2C9-dependant) activity
CYP2C9 [16] = target: T6, CYP2C9
Protocol: as §1, §2

CYP2C9 [17] = target: T6, CYP2C9; settings: In vitro parameters (literature); cited from earlier work

CYP3A4, sequence (P08684 2-503): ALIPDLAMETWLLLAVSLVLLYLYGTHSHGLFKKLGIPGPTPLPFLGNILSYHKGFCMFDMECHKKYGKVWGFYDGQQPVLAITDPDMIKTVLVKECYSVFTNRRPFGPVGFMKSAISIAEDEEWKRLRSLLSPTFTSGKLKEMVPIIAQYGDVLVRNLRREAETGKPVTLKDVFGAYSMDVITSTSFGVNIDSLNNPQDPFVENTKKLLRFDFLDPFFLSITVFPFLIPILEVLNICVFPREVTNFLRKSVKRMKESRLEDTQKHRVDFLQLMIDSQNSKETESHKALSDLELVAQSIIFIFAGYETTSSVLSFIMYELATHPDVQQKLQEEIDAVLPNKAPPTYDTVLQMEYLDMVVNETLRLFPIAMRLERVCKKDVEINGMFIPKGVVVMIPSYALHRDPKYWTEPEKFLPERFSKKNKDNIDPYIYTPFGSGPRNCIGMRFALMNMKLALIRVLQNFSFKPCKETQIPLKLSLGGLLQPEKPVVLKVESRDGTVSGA
CYP2E1, sequence (P05181 whole entry): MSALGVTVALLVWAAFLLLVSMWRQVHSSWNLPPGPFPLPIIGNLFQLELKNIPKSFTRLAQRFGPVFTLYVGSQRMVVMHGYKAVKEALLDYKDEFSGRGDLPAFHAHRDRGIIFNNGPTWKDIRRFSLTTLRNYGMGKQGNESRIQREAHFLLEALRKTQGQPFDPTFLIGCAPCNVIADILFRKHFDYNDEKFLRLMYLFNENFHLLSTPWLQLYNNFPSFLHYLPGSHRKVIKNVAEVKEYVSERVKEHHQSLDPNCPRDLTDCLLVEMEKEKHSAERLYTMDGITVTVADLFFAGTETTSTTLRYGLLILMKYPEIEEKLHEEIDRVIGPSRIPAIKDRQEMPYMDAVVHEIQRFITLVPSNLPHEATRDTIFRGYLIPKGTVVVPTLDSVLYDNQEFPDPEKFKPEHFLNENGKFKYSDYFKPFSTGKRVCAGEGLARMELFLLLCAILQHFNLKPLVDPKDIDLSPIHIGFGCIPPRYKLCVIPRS
T5 sequence (P10635 whole entry): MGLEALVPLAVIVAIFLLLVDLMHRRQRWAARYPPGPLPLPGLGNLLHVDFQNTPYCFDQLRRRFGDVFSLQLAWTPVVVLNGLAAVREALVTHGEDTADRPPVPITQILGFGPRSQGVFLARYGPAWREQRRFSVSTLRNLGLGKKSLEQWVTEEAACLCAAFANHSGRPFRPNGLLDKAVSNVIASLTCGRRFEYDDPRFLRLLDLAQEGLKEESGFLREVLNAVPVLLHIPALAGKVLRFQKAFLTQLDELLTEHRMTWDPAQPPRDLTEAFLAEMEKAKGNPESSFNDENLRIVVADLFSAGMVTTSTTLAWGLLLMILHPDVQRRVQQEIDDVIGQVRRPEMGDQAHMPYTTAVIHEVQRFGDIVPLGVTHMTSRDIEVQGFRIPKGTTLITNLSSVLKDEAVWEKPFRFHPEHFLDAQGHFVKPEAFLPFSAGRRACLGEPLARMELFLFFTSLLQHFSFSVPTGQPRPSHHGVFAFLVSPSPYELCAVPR
T6 sequence (P11712 whole entry): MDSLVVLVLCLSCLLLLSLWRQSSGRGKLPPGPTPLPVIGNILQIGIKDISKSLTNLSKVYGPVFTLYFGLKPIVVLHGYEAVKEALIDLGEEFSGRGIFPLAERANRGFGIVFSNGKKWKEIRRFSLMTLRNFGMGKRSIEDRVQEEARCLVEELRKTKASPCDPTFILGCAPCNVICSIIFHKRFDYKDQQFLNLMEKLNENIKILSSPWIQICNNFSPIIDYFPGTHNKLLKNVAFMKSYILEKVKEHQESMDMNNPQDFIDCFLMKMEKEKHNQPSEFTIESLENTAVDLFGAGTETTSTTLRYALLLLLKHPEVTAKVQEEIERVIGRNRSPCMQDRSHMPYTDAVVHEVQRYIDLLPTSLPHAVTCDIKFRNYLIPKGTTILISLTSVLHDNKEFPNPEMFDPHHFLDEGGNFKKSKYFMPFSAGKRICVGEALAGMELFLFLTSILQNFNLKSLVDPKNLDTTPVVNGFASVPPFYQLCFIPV
CYP2C19, sequence (P33261 whole entry): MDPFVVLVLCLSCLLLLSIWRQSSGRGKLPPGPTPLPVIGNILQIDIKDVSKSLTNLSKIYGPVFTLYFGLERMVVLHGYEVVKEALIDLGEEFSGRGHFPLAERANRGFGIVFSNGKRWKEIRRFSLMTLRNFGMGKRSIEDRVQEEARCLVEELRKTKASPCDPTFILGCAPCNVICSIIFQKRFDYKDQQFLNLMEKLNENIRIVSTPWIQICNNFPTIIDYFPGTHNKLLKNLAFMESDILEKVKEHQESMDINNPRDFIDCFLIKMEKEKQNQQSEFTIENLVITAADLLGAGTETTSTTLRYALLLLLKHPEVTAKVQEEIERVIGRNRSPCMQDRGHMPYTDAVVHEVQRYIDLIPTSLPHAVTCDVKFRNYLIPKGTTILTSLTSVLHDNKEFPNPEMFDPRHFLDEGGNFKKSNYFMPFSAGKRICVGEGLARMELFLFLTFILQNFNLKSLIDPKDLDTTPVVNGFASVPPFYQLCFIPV

SMILES: S=P(N1CC1)(N1CC1)N1CC1 [Thiotepa]
- inhibition at 30 min, 15 µM (CYP2B6 [1]; pH 7.4): 92%
- inhibition at 30 min, 15 µM (CYP2A6 [2]): 64%

SMILES: Cc1ccc(C)c(OCCCC(C)(C)C(=O)O[C@@H]2O[C@H](C(=O)O)[C@@H](O)[C@H](O)[C@H]2O)c1 [Gemfibrozil gluc., Gemfibrozil glucuronide]
- percentage inhibition of amodiaquine hydroxylase activity at excess substrate (CYP2C8 [3]): remains unchanged
- Ki (CYP2C8 [4]): 20 µM
- kinact (CYP2C8 [4]): 0.21 min⁻¹

SMILES: Cc1nc2c([nH]1)c(=O)n(C)c(=O)n2Cc1ccco1 [Furafylline]
- inhibition at 30 min, 10 µM (CYP1A2 [5]; microsomes): 83%
- inhibition at 30 min, 10 µM (CYP1A2 [5]): ~80%

SMILES: CNC(C)Cc1ccc2c(c1)OCO2 (centres unmarked) [MDMA]
- Ki (CYP2D6 [6]): 23 µM
- kinact (CYP2D6 [6]): 0.18 min⁻¹

SMILES: CC(NC(C)(C)C)C(=O)c1cccc(Cl)c1 (centres unmarked) [bupropion]
- intrinsic clearance in the presence of control microsomes [7]: 6.7-10.6 ml/min/g of proteins

SMILES: CC(C)Cc1ccc(C(C)C(=O)O)cc1 (centres unmarked) [ibuprofen]
- % involvement of CYP2C9 (fm), expected data (Brown et al.) (CYP2C9 [8]): (80) %

SMILES: COC(=O)[C@H](c1ccccc1Cl)N1CCc2sccc2C1 [Clopidogrel]
- Ki (CYP2C19): 0.5 to 14.3 µM
- kinact (CYP2C19): 0.056 to 0.35 min⁻¹

SMILES: CCN(CC)C(=S)S [DiethylDithioCarbamate]
- Ki (CYP2E1): 12.2 µM
- kinact (CYP2E1): 0.02 min⁻¹

SMILES: Cc1ccc(-c2cc(C(F)(F)F)nn2-c2ccc(S(N)(=O)=O)cc2)cc1 [celocoxib]
- intrinsic clearance in the presence of control microsomes [7]: 13.4-18.9 ml/min/g of proteins
- inhibition of intrinsic clearance = % involvement of CYP2C8 in the oxidative metabolism (kit of isolated microsomes) (CYP2C8 [9]): No significant inhibition
- inhibition of intrinsic clearance = % involvement of CYP3A4 in the oxidative metabolism (kit of isolated microsomes) (CYP3A4): No significant inhibition
- inhibition of intrinsic clearance = % involvement of CYP1A2 in the oxidative metabolism (kit of isolated microsomes) (CYP1A2 [10]): No significant inhibition
- inhibition of intrinsic clearance = % involvement of CYP2B6 in the oxidative metabolism (kit of isolated microsomes) (CYP2B6 [11]): No significant inhibition
- inhibition of intrinsic clearance = % involvement of CYP2D6 in the oxidative metabolism (kit of isolated microsomes) (CYP2D6 [12]): No significant inhibition
- % involvement of CYP2C9 (fm), expected data (Brown et al.) (CYP2C9 [8]): (80) %

SMILES: Fc1ccc([C@@H]2CCNC[C@H]2COc2ccc3c(c2)OCO3)cc1 [Paroxetine]
- inhibition at 30 min, 50 µM (CYP2B6 [1]; pooled human liver microsomes, pH 7.4, probe bupropion): 91%
- inhibition at 30 min, 50 µM (CYP2D6 [13]): 96%

SMILES: S=C=NCCc1ccccc1 [Phenethyl isothiocyanate]
- kinact (CYP2E1): 0.33 min⁻¹

SMILES: COc1c2occc2cc2ccc(=O)oc12 [8-MethOxyPsoralen]
- Ki (CYP2A6 [14]): 0.3 to 1.9 µM
- kinact (CYP2A6 [14]): 0.5 to 2.1 min⁻¹

SMILES: O=C(O)COc1ccc(C(=O)c2cccs2)c(Cl)c1Cl [Tienilic acid]
- activity of the other major CYP450s (other major CYP450s): remains unchanged
- inhibition at 20 min, 10 µM (CYP2C9 [15]): 92%

SMILES: CCOc1cc(CC(=O)N[C@@H](CC(C)C)c2ccccc2N2CCCCC2)ccc1C(=O)O [repaglinide]
- intrinsic clearance in the presence of control microsomes [7]: 38.4-48.9 ml/min/g of proteins
- inhibition of intrinsic clearance = % involvement of CYP2C9 in the oxidative metabolism (kit of isolated microsomes) (CYP2C9 [16]): No significant inhibition
- inhibition of intrinsic clearance = % involvement of CYP3A4 in the oxidative metabolism (kit of isolated microsomes) (CYP3A4): No significant inhibition
- inhibition of intrinsic clearance = % involvement of CYP1A2 in the oxidative metabolism (kit of isolated microsomes) (CYP1A2 [10]): No significant inhibition
- inhibition of intrinsic clearance = % involvement of CYP2B6 in the oxidative metabolism (kit of isolated microsomes) (CYP2B6 [11]): No significant inhibition
- inhibition of intrinsic clearance = % involvement of CYP2D6 in the oxidative metabolism (kit of isolated microsomes) (CYP2D6 [12]): No significant inhibition

SMILES: CCc1nc(C)c(CN2CCN(c3cc(C(F)(F)F)ccn3)CC2)[nH]1 [EMTPP]
- Ki (CYP2D6 [6]): 5.5 µM
- kinact (CYP2D6 [6]): 0.09 min⁻¹

SMILES: Cc1coc2c1CCC(C)C2 (centres unmarked) [Menthofuran]
- Ki (CYP2A6 [14]): 0.84 to 2.5 µM
- kinact (CYP2A6 [14]): 0.22 to 0.25 min⁻¹

SMILES: CCc1ccc(CCOc2ccc(CC3SC(=O)NC3=O)cc2)nc1 (centres unmarked) [pioglitazone]
- intrinsic clearance in the presence of control microsomes [7]: 43-70 ml/min/g of proteins
- inhibition of intrinsic clearance = % involvement of CYP2C9 in the oxidative metabolism (kit of isolated microsomes) (CYP2C9 [16]): No significant inhibition
- inhibition of intrinsic clearance = % involvement of CYP3A4 in the oxidative metabolism (kit of isolated microsomes) (CYP3A4): No significant inhibition
- inhibition of intrinsic clearance = % involvement of CYP1A2 in the oxidative metabolism (kit of isolated microsomes) (CYP1A2 [10]): No significant inhibition
- inhibition of intrinsic clearance = % involvement of CYP2B6 in the oxidative metabolism (kit of isolated microsomes) (CYP2B6 [11]): No significant inhibition
- inhibition of intrinsic clearance = % involvement of CYP2D6 in the oxidative metabolism (kit of isolated microsomes) (CYP2D6 [12]): No significant inhibition

SMILES: CC(C(=O)O)c1ccc(C(=O)c2cccs2)cc1 (centres unmarked) [Suprofen]
- Ki (CYP2C9 [17]): 3.7 to 26 µM
- kinact (CYP2C9 [17]): 0.07 to 0.09 min⁻¹
